Data reported in ChEMBL document CHEMBL1201862, “PubChem BioAssay data set” (2004).
Activity calls are given as the source filed them. No stated cut-off is given here; in the data, actives have a measured IC50 and inactives only a lower limit.

Target: Envelope glycoprotein gp160 (Human immunodeficiency virus 1, UniProt Q6QLK5)
Assay: inhibitors of HIV fusion peptide binding, primary screen, biochemical, uHTS, fluorescence dequenching (AID 1986)

Envelope glycoprotein gp160, sequence (Q6QLK5 whole entry, the tested form may be a part): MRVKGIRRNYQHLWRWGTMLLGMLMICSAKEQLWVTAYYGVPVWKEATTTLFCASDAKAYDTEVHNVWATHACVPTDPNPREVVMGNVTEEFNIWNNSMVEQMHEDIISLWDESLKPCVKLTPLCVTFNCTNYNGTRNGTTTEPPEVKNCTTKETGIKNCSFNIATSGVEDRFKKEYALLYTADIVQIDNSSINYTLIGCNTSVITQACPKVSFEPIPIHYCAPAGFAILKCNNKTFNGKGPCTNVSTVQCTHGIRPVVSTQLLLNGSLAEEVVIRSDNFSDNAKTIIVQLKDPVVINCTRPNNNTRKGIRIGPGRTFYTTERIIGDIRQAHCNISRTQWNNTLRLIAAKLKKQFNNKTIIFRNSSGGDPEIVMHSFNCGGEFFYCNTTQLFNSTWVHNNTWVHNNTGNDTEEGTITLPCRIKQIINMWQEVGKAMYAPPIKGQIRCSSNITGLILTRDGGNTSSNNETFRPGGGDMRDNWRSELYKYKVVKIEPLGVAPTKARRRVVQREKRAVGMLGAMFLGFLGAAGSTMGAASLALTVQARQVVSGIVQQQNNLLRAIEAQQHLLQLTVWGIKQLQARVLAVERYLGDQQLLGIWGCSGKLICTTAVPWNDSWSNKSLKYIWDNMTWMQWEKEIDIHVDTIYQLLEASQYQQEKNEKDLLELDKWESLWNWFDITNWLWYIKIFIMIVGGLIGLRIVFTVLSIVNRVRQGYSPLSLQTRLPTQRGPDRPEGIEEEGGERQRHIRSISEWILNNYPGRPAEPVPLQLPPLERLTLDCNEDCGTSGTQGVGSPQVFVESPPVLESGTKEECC

Row | Structure (SMILES) | IC50
1 | O=C(N/N=C/c1cc(Cl)cc([N+](=O)[O-])c1O)c1ccccc1NS(=O)(=O)c1cccs1 | 13.6 µM (active)
2 | COc1cc(OC)c2c(O)c3c(c(-c4c5c(c(O)c6c(OC)cc(OC)cc46)CO[C@@H](C)[C@H]5O)c2c1)[C@H](O)[C@H](C)OC3 | 10.1 µM (active)
